Patent publication US20240285615A1, “MEDICAMENTS COMPRISING GLYCOSIDASE INHIBITORS” (priority 2021, published 2024)

Tests used:
[1] = tested on: transgenic mice (Line 61) overexpressing wildtype human alpha-synuclein; test: In vivo treatment efficacy on Parkinson disease (PD) model (Line 61); conditions: Line 61 mice, daily oral gavage for 24 weeks
Excerpt: The transgenic mice (Line 61) which overexpresses wildtype human alpha-synuclein protein (hAsyn) under the regulatory control of the murine Thy-1 promoter is a widely used Parkinson disease (PD) animal model. […] In addition, motor deficits such as lack of coordination, diminution of strength, and unbalance are also observed from 2 to 4 months of age (Fleming et al. 2004, J Neurosci 24 (42): 9434-40). Treatment effect of compound of formula (I) is based on the assessment of the behaviour (motoric performance), as well as the quantification of aggregated hAsyn and pser129-Asyn deposits by histology and by the biochemical determination of aggregated hAsyn present in the brain “insoluble fraction” of treated animals.
For this, transgenic Line 61 mice (4 weeks of age) and age/sex-matched non-transgenic littermates are first tested in the Irwin testing battery test, rotarod, wire suspension, beam walk and pasta gnawing test at baseline. […] Right hemibrains are embedded in OCT medium and 10 μm cryosections are collected to quantify the level of hAsyn and pser129-Asyn deposits by immunohistochemistry in the hippocampus and in the cortex of treated animals. […]

[2] = Summary statistics of steady-state metrics by mathematical modeling of pharmacokinetic data; design: species or system human
Excerpt: The following summary statistics of steady-state metrics have been determined based on the above experimental results (“Mathematical Modeling of Pharmacokinetic Data”, D. W. A. Bourne, Routledge, 2018): […]

[3] = tested on: adults with PSP; test: Randomized, double-blind, placebo-controlled Phase 2 trial in PSP (Example 8); format: in vivo, human; conditions: 75 mg, 150 mg or 300 mg TID PO, 72-week treatment
[4] = Compatibility studies and short-term stability studies of drug substance with excipients; format: physicochemical
Excerpt: Compound (I) is a drug substance with suitable physical, biopharmaceutical, and chemical characteristics for development of an immediate release capsule formulation. […] The blend powder to be filled into the capsules contains common excipients: microcrystalline cellulose, croscarmellose sodium, colloidal silicon dioxide and magnesium stearate. All ingredients were used in concentrations typical for solid oral formulations. The selection of excipients, for the capsule powder, was based on compatibility studies and short-term stability studies. […] The final DP contains the following excipients for the tablet core: microcrystalline cellulose, povidone, croscarmellose sodium, copovidone, silica colloidal anhydrous and sodium stearyl fumarate. A water-based film coat made from hypromellose, macrogol, titanium dioxide and iron oxide was sprayed onto the core tablets. All ingredients were used in quantities typical for oral solid formulations. The selection of excipients was further backed-up by compatibility studies and short-term stability studies of binary mixtures for key ingredients.

In the case of CC(=O)Nc1nnc(N2CCN([C@@H](C)c3ccc4c(c3)OCO4)CC2)s1 [Compound (I)], the “behavioural tests (Irwin battery, rotarod, wire suspension, beam walk, pasta gnawing)” value [1] was “functional benefit (motor improvement)”, the “intraneuronal aggregated pser129-Asyn deposits by histology” value [1] was “reduction of the number of intraneuronal aggregated pser129-Asyn deposits” and the AUC mean ([2]; BID 125 mg) was 12589 ng·h/mL. The AUC median ([2]; BID 125 mg) was 12388 ng·h/mL, the Cavg mean ([2]; BID 125 mg) was 521 ng/mL and the Cavg median ([2]; BID 125 mg) was 358 ng/mL. The Cmax mean ([2]; BID 125 mg) was 1508 ng/mL, the Cmax median ([2]; BID 125 mg) was 1510 ng/mL and the Cmin mean ([2]; BID 125 mg) was 139 ng/mL. For the same compound, the Cmin median ([2]; BID 125 mg) was 130 ng/mL, the AUC mean ([2]; BID 250 mg) was 25763 ng·h/mL and the AUC median ([2]; BID 250 mg) was 25044 ng·h/mL. The Cavg mean ([2]; BID 250 mg) was 1041 ng/mL, the Cavg median ([2]; BID 250 mg) was 720 ng/mL and the Cmax mean ([2]; BID 250 mg) was 3027 ng/mL. The Cmax median ([2]; BID 250 mg) was 3019 ng/mL, the Cmin mean ([2]; BID 250 mg) was 307 ng/mL and the Cmin median ([2]; BID 250 mg) was 276 ng/mL. The AUC mean ([2]; BID 500 mg) was 52673 ng·h/mL, the AUC median ([2]; BID 500 mg) was 52166 ng·h/mL and the Cavg mean ([2]; BID 500 mg) was 2178 ng/mL. For the same compound, the Cavg median ([2]; BID 500 mg) was 1531 ng/mL, the Cmax mean ([2]; BID 500 mg) was 6126 ng/mL and the Cmax median ([2]; BID 500 mg) was 6133 ng/mL. It also gave a Cmin mean ([2]; BID 500 mg) of 654 ng/mL, a Cmin median ([2]; BID 500 mg) of 617 ng/mL and an AUC mean ([2]; TID 75 mg) of 11072 ng·h/mL. It also gave an AUC median ([2]; TID 75 mg) of 10887 ng·h/mL, a Cavg mean ([2]; TID 75 mg) of 456 ng/mL and a Cavg median ([2]; TID 75 mg) of 392 ng/mL. For the same compound, the Cmax mean ([2]; TID 75 mg) was 1058 ng/mL, the Cmax median ([2]; TID 75 mg) was 1053 ng/mL and the Cmin mean ([2]; TID 75 mg) was 109 ng/mL. For the same compound, the Cmin median ([2]; TID 75 mg) was 101 ng/mL, the AUC mean ([2]; TID 150 mg) was 23204 ng·h/mL and the AUC median ([2]; TID 150 mg) was 22835 ng·h/mL. It also gave a Cavg mean ([2]; TID 150 mg) of 951 ng/mL, a Cavg median ([2]; TID 150 mg) of 827 ng/mL and a Cmax mean ([2]; TID 150 mg) of 2162 ng/mL. The Cmax median ([2]; TID 150 mg) was 2143 ng/mL, the Cmin mean ([2]; TID 150 mg) was 257 ng/mL and the Cmin median ([2]; TID 150 mg) was 240 ng/mL. For the same compound, the AUC mean ([2]; TID 300 mg) was 46780 ng·h/mL, the AUC median ([2]; TID 300 mg) was 45869 ng·h/mL and the Cavg mean ([2]; TID 300 mg) was 1909 ng/mL. The Cavg median ([2]; TID 300 mg) was 1660 ng/mL, the Cmax mean ([2]; TID 300 mg) was 4348 ng/mL and the Cmax median ([2]; TID 300 mg) was 4298 ng/mL. For the same compound, the Cmin mean ([2]; TID 300 mg) was 533 ng/mL, the Cmin median ([2]; TID 300 mg) was 499 ng/mL and the “efficacy, safety and tolerability of the preferred dosage regimen” value [3] was “especially effective, safe and well tolerated”. The “stability of the drug substance” value [4] was “suitably stable” and the compatibility with excipients ([4]; capsule powder: microcrystalline cellulose, croscarmellose sodium, colloidal silicon dioxide, magnesium stearate) was “no incompatibility with the chosen excipients”.
